# Assay results: patent US20240307497A1, “ADIPONECTIN ALONE OR IN COMBINATION WITH EXTRACORPOREAL PHOTOPHERESIS (ECP) FOR IMMUNE RELATED ADVERSE EVENTS OF IMMUNE CHECKPOINT INHIBITORS” (Mallinckrodt Pharmaceuticals Ireland Limited, priority 2022, published 2024)
# Legend:
# [1] = tested on: B16.F10 melanoma; assay: B16.F10 intravenous/metastatic tumor model; type: in vivo, C57BL/6 mice; settings: added to anti-PD1, vs anti-PD1-therapy alone
# Description: C57BL/6 mice were intravenously injected with 10 000 B16.F10luc/GFP melanoma cells in the tail vein and treated with 0.2 mg ICI or the respective isotype control on day 1, 4, 8, 16 and 22. ECP-treated splenocytes were transplanted (107; i.v.) on days 13, 18, and 22, and daily steroids were given (i.p.) from days 13-22. Survival of the mice was monitored until day 60.
# [2] = tested on: BRAF^V600E-mutant 4434 melanoma; assay: 4434 intravenous tumor model; type: in vivo, C57BL/6 mice; settings: added to anti-PD1, second melanoma model
# [3] = tested on: B16.F10 melanoma; assay: Recall immunity experiment; type: in vivo, mice; settings: T-cells of treated donors into secondary B16.F10 recipients
# From the text: For evaluation of recall immunity, T-cell donor mice were challenged with 104 B16.F10 melanoma cells (i.v.) and treated with anti-PD1 (days 1, 3, 6, 9, 12), ECP (days 3, 7, 12) or steroids (days 3-12). Secondary recipients were sub-lethally irradiated with 6 Gy TBI and injected i.v. with 104 B16.F10 or 2×10^6 4434 melanoma cells. Splenic T-cells were enriched from T-cell donors on day 13 using the Pan T-cell Isolation Kit II (mouse, Miltenyi) and 1×105 T-cells were transplanted i.v. into secondary recipients on day 3 following tumor injection. Untreated melanoma mice served as control.
# [4] = tested on: s.c. B16.F10-OVA melanoma and MC38-OVA^dim colorectal tumors; assay: OVA-transgenic subcutaneous tumor models; type: in vivo, mice; settings: OT-I and CD8^+OVA-Dextramer^+ T-cells, d16
# Description: C57BL/6 recipients were transplanted subcutaneously with 1×106 MC38-OVAdim or 0.5×10^6 MC38 cells into the shorn right flank. Recipients were treated i.p. with 0.2 mg ICI on days 1, 4, 8, 11, 15. ECP-treated splenocytes were transplanted (107; i.v.) on days 6, 11 and 15, daily steroids were given (i.p.) from days 6-15. On day 16, serum samples were harvested by retroorbital bleeding, the mice were euthanized and tumors were resected for further studies.
# CD45.1 recipients were transplanted subcutaneously with 1×106 B16.F10-OVA cells into the shorn right flank and treated i.p. with 0.2 mg ICI on day 1, 4, 8, 11, 15. ECP-treated splenocytes were transplanted (107; i.v.) on days 6, 11 and 15, daily steroids were given (i.p.) from days 6-15. OT-I splenocytes (CD45.2) were activated on day 2 at a density of 2×10^6 cells/mL in the presence of 100 U/mL rmIL-2 (Peprotech) and 0.1 μg/mL OVA257-264 peptide (Sigma) in RPMI supplemented with 10% FCS, 1% P/S, 55 μM beta-Mercaptoethanol (Gibco) and 4 mM glutamine (Gibco). Splenocytes were washed on day 4 and replated with 100 U/mL rmIL-2 at 2×10^6 cells/mL. […]
# For quantification of adiponectin concentrations in murine serum specimen, blood was harvested by retroorbital bleeding and serum was isolated by centrifugation. Adiponectin concentrations were measured using Adiponectin Mouse ELISA Kit (ThermoFisher) at 20,000-fold dilution.
# [5] = tested on: B16.F10 melanoma with DSS/anti-PD1-mediated colitis; assay: Combined colitis and B16.F10 tumor model; type: in vivo, C57BL/6 mice
# Description: C57BL/6 mice were intravenously injected with 10 000 B16.F10luc/GFP melanoma cells in the tail vein and received 3% Dextran Sodium Sulfate (DSS colitis grade, 36-50 kDa; MP Biomedicals) in drinking water from day 9-12, followed by normal drinking water. Mice were treated with 0.2 mg ICI or the respective isotype control on days 1, 4, 8, 16 and 22. ECP-treated splenocytes were transplanted (107; i.v.) on days 13, 18 and 22, daily steroid was given (i.p.) from days 13-22. Mice were imaged with BLI on day 23, organs and serum were harvested on day 24.
# Luciferin (D-luciferin, potassium salt (S)-4,5-Dihydro-2-(6-hydroxy-2-benzothiazolyl)-4-thiazolecarboxylic acid potassium salt; Biosynth) was dissolved in H2O and injected i.p. at a concentration of 150 μg/g body weight. After 10 minutes, the mice were imaged using an IVIS Lumina III in vivo imaging system (PerkinElmer) with an exposure time of 2 minutes. The luciferase signal was quantified in photons per second per mouse. Acquisition, analysis, and visualization of BLI were performed using Living Image Software (PerkinElmer).
structure (smiles),measurement,setting,value
"C[C@]12C=CC(=O)C=C1CC[C@@H]1[C@@H]2[C@@H](O)C[C@@]2(C)[C@H]1CC[C@]2(O)C(=O)CO [Steroids, Prednisolone]",survival,[1],reduced survival
same,survival,[2],findings were reproduced
same,recall-immunity of transferred T-cells,[3],this was not the case
same,tumor-specific T-cells in the tumor microenvironment,[4],reduction of adoptively-transferred OT-I T-cells and endogenous CD8^+OVA-Dextramer^+ T-cells
same,colitis in melanoma-bearing mice,[5]; d23,similarly reduced
same,tumor burden / control of tumor growth,[5]; luminescence imaging and melanoma transcripts in lungs,higher tumor burden
